Results reported in patent US10752612B2, “PLK4 inhibitors” (LUDWIG INSTITUTE FOR CANCER RESEARCH LTD, priority 2015, dated 2020).

What follows are compounds tested against T1, human Plk4 kinase domain (aa 2-275) (Homo sapiens, UniProt O00444) (assay: Plk4 kinase assay (ADP-Glo)). Details: Table 1.
T1 construct: purified 6×His-tagged human Plk4 kinase domain (aa 2-275); 6xHis; made in house; host or cells: E. coli
T1 sequence (O00444 2-275): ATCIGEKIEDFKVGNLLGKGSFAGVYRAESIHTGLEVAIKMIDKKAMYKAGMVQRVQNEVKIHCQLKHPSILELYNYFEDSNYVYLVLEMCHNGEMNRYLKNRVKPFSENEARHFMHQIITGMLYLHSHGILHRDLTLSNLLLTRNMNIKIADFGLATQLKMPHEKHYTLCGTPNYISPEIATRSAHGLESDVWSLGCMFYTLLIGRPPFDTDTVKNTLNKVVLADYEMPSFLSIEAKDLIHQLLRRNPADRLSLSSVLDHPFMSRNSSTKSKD
Type: biochemical
In short: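 Enzyme at 2.5-10 nM final, pH 8.0, reacted 4-16 hours at 25° C; ADP generation read by ADP-Glo luminescence. Ki derived from IC50 by Cheng-Prusoff or, for tight binders, Copeland formalism.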

IC50 [nM] | SMILES
< 1000 | CC(=O)Nc1ccc(Sc2nc(Nc3cc(C)[nH]n3)c(C)c(N3CCOC[C@@H]3C)n2)cc1
< 1000 | COc1c(Nc2cc(C)[nH]n2)nc(Sc2ccc(NC(C)=O)cc2)nc1N1CCN(CCN2CCCCC2)CC1
100 to 1000 | COc1c(Nc2cc(C)[nH]n2)nc(Sc2ccc(NC(C)=O)cc2)nc1N1CCC(OCCN(C)C)CC1
< 1000 | COc1c(Nc2cc(C)[nH]n2)nc(Sc2ccc(NC(C)=O)cc2)nc1N1CCN(CCCN(C)C)CC1
< 1000 | COc1c(Nc2c[nH]c(C)c2)nc(Sc2ccc(NC(C)=O)cc2)nc1N1CCC(O)C1 (stereo not drawn)
< 1000 | CNC(=O)Nc1ccc(Sc2nc(Nc3cc(C)[nH]n3)c(OC)c(N3CCN(CCN(C)C)CC3)n2)cc1
< 1000 | CC(=O)Nc1ccc(Sc2nc(Nc3cc(C)[nH]n3)c(C)c(N3CCOC[C@H]3C)n2)cc1
< 1000 | COc1c(Nc2cc(C)[nH]n2)nc(Sc2ccc(NC(C)=O)cc2)nc1N1CCN(CCNC(C)=O)CC1
< 1000 | CNCCN1CCN(c2nc(Sc3ccc(NC(C)=O)cc3)nc(Nc3cc(C)[nH]n3)c2OC)CC1
< 1000 | COc1c(Nc2cc(C)[nH]n2)nc(Sc2ccc(NC(C)=O)cc2)nc1N1CCOC[C@@H]1C
< 1000 | COc1c(Nc2cc(C)[nH]n2)nc(Sc2ccc(NC(C)=O)cc2)nc1N1CCOC[C@H]1C
< 1000 | COc1c(Nc2cc(C)[nH]n2)nc(Sc2ccc(NC(N)=O)cc2)nc1N1CCN(CCN(C)C)CC1
< 1000 | CC(=O)Nc1ccc(Sc2nc(Nc3cc(C)[nH]n3)c(C)c(NC3CCN(C)CC3)n2)cc1
< 1000 | COc1c(Nc2cc(C)[nH]n2)nc(Sc2ccc(NC(C)=O)cc2)nc1N1CCN(CC(=O)N(C)C)CC1
< 1000 | COc1c(Nc2cc(C)[nH]n2)nc(Sc2ccc(NC(C)=O)cc2)nc1NC1CCN(C)CC1
< 1000 | COc1c(Nc2cc(C)[nH]n2)nc(Sc2ccc(NC(C)=O)cc2)nc1N1CCN(C(=O)N(C)C)CC1
< 1000 | COc1c(Nc2cc(C)[nH]n2)nc(Sc2ccc(NC(C)=O)cc2)nc1N1CCC(CCN2CCOCC2)CC1

The next lines start with the compound.

SMILES | IC50 [nM]
Cc1cc(Nc2nc(Sc3ccc(NC(=O)C4CC4)cc3)nc(N3CCCCC3)c2C)n[nH]1 | < 1000
CNc1nc(Sc2ccc(NC(=O)C3CC3)cc2)nc(Nc2cc(C)[nH]n2)c1C | < 1000
CSc1nc(Nc2cc(C)[nH]n2)c(C)c(N2CCN(CCN(C)C)CC2)n1 | < 1000
COc1c(Nc2cc(C)[nH]n2)nc(Sc2ccc(NC(=O)C(F)(F)F)cc2)nc1N1CCN(CCN(C)C)CC1 | < 1000
COc1c(Nc2cc(C)[nH]n2)nc(Sc2ccc(S(=O)(=O)Cc3ccccc3F)cc2)nc1N1CCOCC1 | < 1000
COc1c(Nc2cc(C)[nH]n2)nc(Sc2ccc(S(=O)(=O)Cc3ccccc3[N+](=O)[O-])cc2)nc1N1CCN(CCN(C)C)CC1 | < 1000
COc1c(Nc2cc(C)[nH]n2)nc(Sc2ccc(S(=O)(=O)Cc3cccc(C(F)(F)F)c3)cc2)nc1N1CCN(CCN(C)C)CC1 | < 1000
COc1c(Nc2cc(C)[nH]n2)nc(Sc2ccc(S(=O)(=O)Cc3cccc(F)c3F)cc2)nc1N1CCN(CCN(C)C)CC1 | < 1000
CC(=O)Nc1ccc(Sc2nc(Nc3cc(C)[nH]n3)c(C)c(NC3CCNCC3)n2)cc1 | < 1000
CCOc1c(Nc2cc(C)[nH]n2)nc(Sc2ccc(NC(=O)C3CC3)cc2)nc1N1CCNCC1 [drawing 122] | < 1000
CCOc1c(Nc2cc(C)[nH]n2)nc(Sc2ccc(NC(=O)C3CC3)cc2)nc1N(CC)CC [drawing 123] | < 1000
CCOc1c(Nc2cc(C)[nH]n2)nc(Sc2ccc(NC(=O)C3CC3)cc2)nc1N(C)CC [drawing 124] | < 1000
CCOc1c(Nc2cc(C)[nH]n2)nc(Sc2ccc(NC(=O)C3CC3)cc2)nc1N(C)C [drawing 125] | < 1000
CCOc1c(Nc2cc(C)[nH]n2)nc(Sc2ccc(NC(=O)C3CC3)cc2)nc1N1CCNCC1 [drawing 126] | 100 to 1000
CCOc1c(Nc2cc(C)[nH]n2)nc(Sc2ccc(NC(=O)C3CC3)cc2)nc1N(CC)CC [drawing 127] | 100 to 1000
CCOc1c(Nc2cc(C)[nH]n2)nc(Sc2ccc(NC(=O)C3CC3)cc2)nc1N(C)CC [drawing 128] | 100 to 1000
